Consider one molecule from US9504657B2, “Fixed dose combination therapy of Parkinson's disease” (PHARMA TWO B LTD., priority 2012, dated 2016).

Each structure is given as a SMILES string.

The test system of test [1] is dopamine levels in mouse brain. The test can be described thus: In vivo study of drugs in MPTP mice model of Parkinson's disease, striatal dopamine by HPLC. The following applies: IP daily 12 days, rasagiline 0.15 mg/Kg, pramipexole 0.12, 0.1, 0.075 mg/Kg, alone or combined. On the procedure:
Male C57B1/6 mice weighing 20+/−1 g are used (6-10 mice per group). MPTP is administrated by intraperitonealy (IP) injection at a dose of 40 mg/Kg per day for 5 days. Controls are naïve untreated mice injected with saline, and MPTP treated mice injected with saline (no drug treatment). Drugs, rasagiline (0.15 mg/Kg) and pramipexole (3 different doses of 0.12, 0.1 and 0.075 mg/Kg), are given alone or in 3 fixed dose combinations of rasagiline and pramipexole. The fixed dose combinations are composed of rasagiline at a constant dose of 0.15 mg/Kg and pramipexole at 3 different doses as indicated above. Both drugs are dissolved together at saline from their stock solutions to give the final desired combination dose. The application of the drugs is done daily intraperitonealy (IP) injection 30 minutes before MPTP administration. […] The effect of the treatments is assessed by measurement of dopamine and its metabolites (dihydroxyphenylacetic acid and Homovanillic acid) in left and right striatum together taken from the mice at the end of the experiment. […]
Striatum tissue samples are homogenized in ice in 500 μl homogenization buffer (0.1M perchloric acid, 0.02% EDTA and 1% ETOH) using OMNI Tip homogenizing kit of OMNI International (intermediate speed, 3×10 seconds with 5 seconds intervals). […] The supernatants are transferred into fresh tubes and Dopamine content is analyzed by HPLC. […]

In test [2] the test system is Parkinson's disease patients. The following applies: 1 mg immediate release rasagiline added to pramipexole averaging 1.5 mg per day; cited from earlier work.

With `C#CCN[C@@H]1CCc2ccccc21` [rasagiline], the “effect of treatment on Dopamine levels compared to saline” value in test [1] is “very low”. Besides, the “combined effect on total UPDRS score, reduction compared to placebo” value in test [2] was 2.4 UPDRS points.
